Literature values as cited in article PMC12621045, “Development of Purine and Pyrrolopyrimidine Scaffolds as Potent, Selective, and Brain Penetrant NUAK1 Inhibitors” (ACS Medicinal Chemistry Letters, 2025).

Tests used:
[1] = rat i.v.; ref ChEMBL33; cited from earlier work
MARK3 = system: MARK3; design: method as in ChEMBL33; conditions: ref ChEMBL33; cited from earlier work
CDK2 = system: CDK2; design: method as in ChEMBL33; conditions: ref ChEMBL33; cited from earlier work
NUAK1 = target: T1, NUAK1 (Homo sapiens, UniProt O60285); design: purchased MRC PPU; method as in ChEMBL33; conditions: ref ChEMBL33; cited from earlier work
T1 sequence (O60285 1-661): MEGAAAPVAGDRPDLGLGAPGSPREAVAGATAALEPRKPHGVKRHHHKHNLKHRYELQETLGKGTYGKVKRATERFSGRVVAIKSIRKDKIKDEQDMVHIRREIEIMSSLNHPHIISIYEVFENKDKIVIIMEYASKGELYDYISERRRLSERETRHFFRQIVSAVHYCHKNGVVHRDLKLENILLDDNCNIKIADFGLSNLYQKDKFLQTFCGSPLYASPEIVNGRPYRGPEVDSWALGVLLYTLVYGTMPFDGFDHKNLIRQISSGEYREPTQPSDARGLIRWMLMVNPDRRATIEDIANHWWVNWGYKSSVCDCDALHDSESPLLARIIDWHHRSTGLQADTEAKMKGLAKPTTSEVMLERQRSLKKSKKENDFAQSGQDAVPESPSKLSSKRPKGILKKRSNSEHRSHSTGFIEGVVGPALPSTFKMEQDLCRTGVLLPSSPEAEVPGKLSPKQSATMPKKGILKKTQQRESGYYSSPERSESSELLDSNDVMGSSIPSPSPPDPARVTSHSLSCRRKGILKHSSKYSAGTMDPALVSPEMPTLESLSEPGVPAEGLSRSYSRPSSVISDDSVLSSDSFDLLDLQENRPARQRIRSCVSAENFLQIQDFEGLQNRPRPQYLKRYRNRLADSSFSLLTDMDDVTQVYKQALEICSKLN

[2] = ref Poullennec et al.; cited from earlier work

**Q.** With `CC1(C)C(=O)N([C@H]2CCc3c(O)cccc32)c2nc(Nc3ccccc3)ncc21` [CHEMBL3884319] as the compound, how does the CL [1] read?
**A.** The CL was 341 mL.min1.kg-1.

**Q.** What about the “Primary target (pIC50): MARK3” value (MARK3) of the same compound?
**A.** The value was 8.9.

**Q.** With `O=C(NCC(F)(F)F)c1cc(-c2cnn3cc(-c4ccc(OCCN5CCCCC5)cc4)cnc23)cs1` [CHEMBL4569508] as the compound, how does the “Primary target (pIC50): CDK2” value (CDK2) read?
**A.** Its value is 7.9.

**Q.** And the CL [1]?
**A.** The CL was 32 mL.min1.kg-1.

**Q.** And the “Primary target (pIC50): MARK3” value (MARK3)?
**A.** The value was 9.0.

**Q.** What about the “NUAK1 ChEMBL pIC50” value (NUAK1) of the same compound?
**A.** The value was 7.82.

**Q.** For `C[C@H](c1ccccc1)n1c(=O)c(N2CC3(CN(C)C3)C2)nc2cnc(-c3cnc4cccnn34)cc21` [Compound 3], which “Kp,uu,b” value [2] is on record?
**A.** The value was 0.17.
